Series [1] can be described thus: open-tubular capillary electrochromatography (CEC), permeability k′ parameter. Type of series: in vitro ADME. Particulars: pH 7.4 HEPES buffer 40 mM, migration times in coated and uncoated capillary, mean ± SD of three independent experiments.
The conditions of series [2]: experimental in vivo measurements from rats, data retrieved from literature; cited from earlier work.
A short description of series [3]: Sirius T3 automated potentiometric titrations with n-octanol, log P / log D. Particulars: n-octanol/water; for logD: pH 7.4.
The nature of series [4]: Sirius T3 automated potentiometric (pH-metric) titrations, pKa. Particulars: ionic strength adjusted (ISA) water ([…] KCl).
Where [5] appears, read: pKa ± SD, […] ISA water or Yasuda–Shedlovsky extrapolation from methanol cosolvent, value used for regression.

In the case of `CC(=O)Oc1ccccc1C(=O)O` [acetylsalicylic acid], the “k′ ± SD (CEC)” value in series [1] amounted to 0.03441 ± 0.00987. The “Log BB” value in series [2] is listed as −1.30. For the same molecule, in series [3], the logP (usually a log measure of how a compound divides between an organic and an aqueous phase) was 1.31 ± 0.01; the logD – broadly, the decadic logarithm of the distribution of all forms, ionised or not, between an organic phase and buffer at a given pH – was -2.73.

Turning to `CN(C)CCC=C1c2ccccc2CCc2ccccc21` [amitriptyline], the “k′ ± SD (CEC)” value in series [1] was 0.00004 ± 0.00001. In series [2], the “Log BB” value is recorded as 1.30. The pKa (commonly the negative logarithm of the acid dissociation constant) in series [4] (setting [5]) was 9.23 ± 0.08. Also, in series [3], the logP was determined as 4.68 ± 0.02 and the logD came out at 2.84.

With `CC(C)NCC(O)COc1ccc(CC(N)=O)cc1` (centres unmarked) [atenolol], the “k′ ± SD (CEC)” value in series [1] came to 0.00183 ± 0.00051.

With `CN1[C@@H]2CC[C@H]1C[C@@H](OC(=O)C(CO)c1ccccc1)C2` (some centres unmarked) [atropine], the “k′ ± SD (CEC)” value in series [1] is reported as 0.0044 ± 0.00309.

For `CNCCc1ccccn1` [betahistine], in series [1], the “k′ ± SD (CEC)” value came to 0.03582 ± 0.00587. Further, the “Log BB” value in series [2] is given as −0.30. The pKa in series [4] (setting [5]) was 9.84. In series [3], the logP stood at 0.49 ± 0.01 and the logD is -1.95.

With `O=C(CCCN1CCC(O)(c2ccc(Br)cc2)CC1)c1ccc(F)cc1` [bromperidol], the “k′ ± SD (CEC)” value in series [1] is recorded as −0.00795 ± 0.00034. The “Log BB” value in series [2] is reported as 1.38. Besides, the pKa in series [4] (setting [5]) was 8.45 ± 0.1. In series [3], this molecule showed a logP of 3.87 ± 0.05 and a logD of 2.81.

As for `O=C1CC2(CCCC2)CC(=O)N1CCCCN1CCN(c2ncccn2)CC1` [buspirone], the pKa in series [4] (setting [5]) was 7.62.

In the case of `CN(C)CCCN1c2ccccc2Sc2ccc(Cl)cc21` [chlorpromazine], the pKa in series [4] (setting [5]) was 9.07 ± 0.01. In series [3], this molecule yielded a logP of 5.1 ± 0.03 and a logD of 3.43.

In the case of `CN(C)CCCC1(c2ccc(F)cc2)OCc2cc(C#N)ccc21` (centres unmarked) [citalopram], in series [1], the “k′ ± SD (CEC)” value is recorded as 0.00405 ± 0.00229. In addition, the “Log BB” value in series [2] is listed as 0.48.

On to `Clc1cccc(Cl)c1N=C1NCCN1` [clonidine], for which, in series [1], the “k′ ± SD (CEC)” value is listed as 0.00321 ± 0.00046. The “Log BB” value in series [2] was 0.11. The pKa in series [4] came out at 8.12 ± 0.01.

As for `CN1CCN(C2=Nc3cc(Cl)ccc3Nc3ccccc32)CC1` [clozapine], in series [1], the “k′ ± SD (CEC)” value is given as 0.00693 ± 0.00245. Moreover, the “Log BB” value in series [2] is recorded as 0.60. Also, in series [3], the logP came out at 3.92 ± 0.1 and the logD was 3.52.

Regarding `CNCCCN1c2ccccc2CCc2ccccc21` [desipramine], the “k′ ± SD (CEC)” value in series [1] is given as −0.01523 ± 0.00343. In addition, the “Log BB” value in series [2] is on record as 1.20.

Take `O=C(O)Cc1ccccc1Nc1c(Cl)cccc1Cl` [diclofenac]: the “k′ ± SD (CEC)” value in series [1] is recorded as 0.00802 ± 0.0032. Further, the “Log BB” value in series [2] is −1.70. Moreover, in series [3], the logP amounted to 4.33 ± 0.01 and the logD stood at 1.26.

For `OCCN1CCN(CCCN2c3ccccc3Sc3ccc(C(F)(F)F)cc32)CC1` [fluphenazine], the “k′ ± SD (CEC)” value in series [1] came out at 0.111 ± 0.00192. For the same molecule, the “Log BB” value in series [2] is listed as 1.51. Besides, the pKa in series [4] (setting [5]) was 7.79 ± 0.07. In series [3], the log partition coefficient (logP) came to 5.12 ± 0.06 and the logD came out at 4.58.

Take `O=C(CCCN1CCC(O)(c2ccc(Cl)cc2)CC1)c1ccc(F)cc1` [haloperidol]: in series [1], the “k′ ± SD (CEC)” value is on record as −0.00906 ± 0.00138. In addition, in series [4] (setting [5]), the pKa is 8.66 ± 0.08. Further, in series [3], the logP is 4.37 ± 0.08 and the logD was 3.18.

As for `OCCOCCN1CCN(C(c2ccccc2)c2ccc(Cl)cc2)CC1` (centres unmarked) [hydroxyzine], the “k′ ± SD (CEC)” value in series [1] is −0.00058 ± 0.00031. In series [2], the “Log BB” value was 0.90. Also, the pKa in series [4] (setting [5]) is 7.66 ± 0.04. Further, in series [3], the logP amounted to 3.73 ± 0.03 and the logD is 3.34.

With `CC(C)Cc1ccc(C(C)C(=O)O)cc1` (centres unmarked) [ibuprofen], in series [1], the “k′ ± SD (CEC)” value is −0.0369 ± 0.00011. In series [3], this molecule yielded a logP of 3.8 and a logD of 1.07.

Regarding `CN(C)CCCN1c2ccccc2CCc2ccccc21` [imipramine], in series [2], the “Log BB” value is reported as 1.30.

For `COc1ccc2c(c1)c(CC(=O)O)c(C)n2C(=O)c1ccc(Cl)cc1` [indomethacin], in series [1], the “k′ ± SD (CEC)” value is reported as 0.01869 ± 0.00624. In series [2], the “Log BB” value is −1.26. In series [3], the logP stood at 6.31 ± 0.12 and the logD worked out at 3.92.

`O=C(c1ccccc1)c1ccc2n1CCC2C(=O)O` (centres unmarked) [ketorolac]: in series [1], the “k′ ± SD (CEC)” value came out at 0.02127 ± 0.00131. Further, in series [2], the “Log BB” value is −2.00. Moreover, the pKa in series [4] (setting [5]) was 3.64 ± 0.06. Moreover, in series [3], the logP amounted to 2.9 ± 0.04 and the logD is -0.05.

Regarding `C[C@H]1COc2c(N3CCN(C)CC3)c(F)cc3c(=O)c(C(=O)O)cn1c23` [levofloxacin], the “Log BB” value in series [2] is −0.70. In series [3], this molecule yielded a logP of 0.82 ± 0.01 and a logD of 0.77.

As to `COc1ccc(CN(CCN(C)C)c2ccccn2)cc1` [mepyramine], the pKa in series [4] (setting [5]) is 8.71 ± 0.05. In series [3], the logP turned out to be 2.73 ± 0.02 and the logD worked out at 1.48.

As for `CCN(CC)CCNC(=O)c1cc(Cl)c(N)cc1OC` [metoclopramide], the “k′ ± SD (CEC)” value in series [1] is given as −0.00563 ± 0.00136. Also, the “Log BB” value in series [2] is given as 0.08.

Take `CN1CCN2c3ccccc3Cc3ccccc3C2C1` (centres unmarked) [mianserin]: the “k′ ± SD (CEC)” value in series [1] is on record as −0.02148 ± 0.00155. Further, the “Log BB” value in series [2] is 0.99. Also, the pKa in series [4] (setting [5]) was 7.25 ± 0.03. In series [3], this molecule had a logP of 3.74 ± 0.01 and a logD of 3.5.

Consider `COc1ccc2cc([C@H](C)C(=O)O)ccc2c1` [naproxen], for which the “k′ ± SD (CEC)” value in series [1] is reported as 0.0105 ± 0.0046. Moreover, the “Log BB” value in series [2] was −1.70.

Take `CCCCC1C(=O)N(c2ccccc2)N(c2ccccc2)C1=O` [phenylbutazone]: the “k′ ± SD (CEC)” value in series [1] came to 0.00083 ± 0.00015. Further, in series [2], the “Log BB” value was −0.52.

Turning to `CC(C)NCC(O)COc1cccc2[nH]ccc12` (centres unmarked) [pindolol], the “Log BB” value in series [2] was 0.30. The pKa in series [4] is 9.62 ± 0.07.

On to `CC(C)NCC(O)COc1cccc2ccccc12` (centres unmarked) [propranolol], for which the “k′ ± SD (CEC)” value in series [1] worked out at 0.00202 ± 0.00061. Also, the “Log BB” value in series [2] was 0.85.

Consider `C=C[C@H]1C[N@@]2CC[C@H]1C[C@@H]2[C@@H](O)c1ccnc2ccc(OC)cc12` [quinidine], for which the “k′ ± SD (CEC)” value in series [1] was 0.0034 ± 0.0004. For the same molecule, the “Log BB” value in series [2] is 0.33.

In the case of `Cc1nc2n(c(=O)c1CCN1CCC(c3noc4cc(F)ccc34)CC1)CCCC2` [risperidone], the “k′ ± SD (CEC)” value in series [1] amounted to 0.00698 ± 0.00377. The molecule also yielded a logP in series [3] of 3.09 ± 0.03.

Turning to `O=C(O)c1ccccc1O` [salicylic acid], the “k′ ± SD (CEC)” value in series [1] came out at 0.02255 ± 0.00676. Further, in series [3], the log partition coefficient (logP) was 2.31 ± 0.01 and the logD is -0.98.

`CSc1ccc2c(c1)N(CCC1CCCCN1C)c1ccccc1S2` (centres unmarked) [thioridazine]: in series [2], the “Log BB” value is given as 0.24. Besides, the pKa in series [4] (setting [5]) is 9.25 ± 0.01. For the same molecule, in series [3], the logP amounted to 5.38 ± 0.03 and the logD was 3.54.

In the case of `CN1CCN(CCCN2c3ccccc3Sc3ccc(C(F)(F)F)cc32)CC1` [trifluoperazine], in series [1], the “k′ ± SD (CEC)” value was found to be 0.2028 ± 0.00151. Further, the “Log BB” value in series [2] is given as 1.44. In series [3], this molecule came in with a logP of 6.14 ± 0.01 and a logD of 5.53.

Regarding `Cc1cn([C@H]2C[C@H](N=[N+]=[N-])[C@@H](CO)O2)c(=O)[nH]c1=O` [zidovudine], in series [1], the “k′ ± SD (CEC)” value was 0.00428 ± 0.00056. Also, in series [4] (setting [5]), the pKa is 9.51. In series [3], this molecule yielded a logP of 0.09 ± 0.01 and a logD of 0.09.
